Assay results as given in patent US8198279B2, “Pyrido[2,3-b]pyrazin-8-substituted compounds and their use” (Institute of Cancer Research: Royal Cancer Hospital (The), priority 2007, dated 2012).
Where “and” joins values, the source holds several entries; their conditions need not be identical. Equal values may be shown once.

Each compound was assayed against T1, B-RAF (Homo sapiens, UniProt P15056, V600E) (assay: DELFIA Kinase Assay). Settings: 100 μM ATP, GST-MEK substrate.
T1 construct: made in house
T1 sequence (P15056 whole entry V600E): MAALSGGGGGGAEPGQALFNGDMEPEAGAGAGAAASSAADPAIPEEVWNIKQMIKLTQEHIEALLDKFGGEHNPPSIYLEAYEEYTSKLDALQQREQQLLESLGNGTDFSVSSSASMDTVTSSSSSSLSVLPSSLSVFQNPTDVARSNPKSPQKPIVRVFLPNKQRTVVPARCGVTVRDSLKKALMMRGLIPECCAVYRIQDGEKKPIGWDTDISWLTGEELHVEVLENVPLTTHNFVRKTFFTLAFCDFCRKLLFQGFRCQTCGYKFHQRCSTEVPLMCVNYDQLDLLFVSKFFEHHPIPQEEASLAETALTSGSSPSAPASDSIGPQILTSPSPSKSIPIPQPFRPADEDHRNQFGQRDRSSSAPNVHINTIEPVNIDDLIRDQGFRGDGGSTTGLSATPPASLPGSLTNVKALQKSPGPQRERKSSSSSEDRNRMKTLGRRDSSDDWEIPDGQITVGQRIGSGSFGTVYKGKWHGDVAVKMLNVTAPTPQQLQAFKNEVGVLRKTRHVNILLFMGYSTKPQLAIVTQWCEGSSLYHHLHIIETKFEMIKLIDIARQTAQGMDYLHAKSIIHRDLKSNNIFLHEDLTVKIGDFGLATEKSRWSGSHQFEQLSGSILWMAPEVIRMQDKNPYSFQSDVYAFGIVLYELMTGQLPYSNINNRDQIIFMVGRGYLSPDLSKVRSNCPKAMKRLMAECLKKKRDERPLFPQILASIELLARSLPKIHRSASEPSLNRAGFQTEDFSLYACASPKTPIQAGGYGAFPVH
Format: biochemical
Experimental: Biological Methods—DELFIA Kinase Assay
Compounds were assessed by a kinase assay performed according to the following protocol.
DKB1 (DKB with B-RAF and MEK Protein):
Combine 4950 μL of DKB and 50 μL of 2.5 mg/ml GST-MEK stock (to give […] of MEK per 40 μL). Then add 22.5 μL of B-RAF to give ˜0.2 μL of B-RAF per 40 μL.
100 mM stock, dilute to 500 μM to give 100 μM final concentration in assay.
• 1. Preblock wells with 5% milk in TBS for 1 hour. • 2. Wash wells with 3× with 200 μL TBS. • 3. Plate out 40 μL of DKB1 for all inhibitors (test compounds), DMSO control, and optionally other control compounds. • 4. Plate out 40 μL of DKB2 for BO and EV wells. • 5. Add inhibitors (test compounds) at 0.5 μL per well according to desired plate layout. • 6. Add 0.5 μL DMSO to vehicle control wells. • 7. Add 2 μL of B-RAF to BO and EV wells. • 8. Pre-incubate with inhibitors (test compounds) for 10 minutes at room temperature with shaking. • 9. Add 10 μL of 500 μM ATP stock, in DKB, to give 100 μM assay concentration. • 10. Seal plates with TopSeal and incubate at room temperature with shaking for 45 minutes. • 11. Wash plates 3× with 200 μL 0.1% Tween20/Water to terminate reaction. • 12. Add 50 μL per well of antibody mix and incubate for 1 hour at room temperature with shaking. • 13. Wash plates 3× with 200 μL 0.1% Tween20/Water. • 14. Add 100 μL DELFIA enhancement solution per well, cover in foil, and incubate at room temperature for 30 minutes with shaking. • 15. Read on Victor using Europium protocol.
Values for the blank (Empty Vector) are subtracted from all values. The DMSO controls are set as 100% activity and assay points (the response) are calculated as a percentage of the DMSO control. Data are plotted using Graphpad Prism software and a non-linear regression line is calculated using a variable slope sigmoidal dose-response equation (Y=Bottom+(Top−Bottom)/(1+10^((LogEC50−X)*HillSlope)) where X is the logarithm of concentration. Y is the response). The IC50 generated by this procedure is the concentration of the drug that produces a percentage control fluorescence value midway between the saturation, and zero-effect plateaus. Three independent assays are usually performed and the mean IC50 is reported.

Row | IC50 | SMILES
1 | < 1000 nM and 100 to 1000 nM | Cc1nc2nccc(Oc3ccc(NC(=O)Nc4cc(C(F)(F)F)ccc4F)c(F)c3)c2[nH]c1=O [AA-049, 1-(2-fluoro-4-(3-methyl-2-oxo-1,2-dihydropyrido[3,2-b]pyrazin-8-yloxy)phenyl)-3-(2-fluoro-5-(trifluoromethyl)phenyl)urea]
2 | < 100 nM | CSc1cc(Oc2ccnc3ncc(=O)[nH]c23)ccc1NC(=O)Nc1ccc(Cl)c(C(F)(F)F)c1 [AA-045, 1-(4-chloro-3-(trifluoromethyl)phenyl)-3-(2-(methylthio)-4-(2-oxo-1,2-dihydropyrido[2,3-b]pyrazin-8-yloxy)phenyl)urea]
3 | < 1000 nM and 100 to 1000 nM | CN1CCN(c2cnc3c(Oc4ccc(NC(=O)Nc5cc(C(F)(F)F)ccc5F)c(F)c4)ccnc3n2)CC1 [AA-056, 1-(2-Fluoro-4-(3-(4-methylpiperazin-1-yl)pyrido[3,2-b]pyrazin-8-yloxy)phenyl)-3-(2-fluoro-5-(trifluoromethyl)phenyl)urea]
4 | 100 to 1000 nM | O=C(Nc1cc(C(F)(F)F)ccc1F)Nc1ccc(Oc2ccnc3[nH]c(=O)c(C(F)(F)F)nc23)c2ccccc12 [AA-082, 1-(2-fluoro-5-(trifluoromethyl)phenyl)-3-(4-(3-oxo-2-(trifluoromethyl)-3,4-dihydropyrido[2,3-b]pyrazin-8-yloxy)naphthalen-1-yl)urea]
5 | < 1000 nM and 100 to 1000 nM | CSc1cc(Oc2ccnc3ncc(=O)[nH]c23)ccc1NC(=O)Nc1cc(C(F)(F)F)ccc1F [AA-046, 1-(2-fluoro-5-(trifluoromethyl)phenyl)-3-(2-(methylthio)-4-(2-oxo-1,2-dihydropyrido[2,3-b]pyrazin-8-yloxy)phenyl)urea]
6 | < 100 nM | O=C(Nc1ccc(Oc2ccnc3[nH]c(=O)c(=O)[nH]c23)cc1)Nc1ccc(Cl)c(C(F)(F)F)c1 [AA-050, 1-(4-chloro-3-(trifluoromethyl)phenyl)-3-(4-(2,3-dioxo-1,2,3,4-tetrahydropyrido[2,3-b]pyrazin-8-yloxy)phenyl)urea]
7 | < 100 nM | O=C(Nc1ccc(Oc2ccnc3ncc(=O)[nH]c23)cc1F)Nc1cc(C(F)(F)F)ccc1F [AA-047]
8 | 100 to 1000 nM | O=C(Nc1ccc(Oc2ccnc3ncc(=O)[nH]c23)cc1)Nc1cc(C(F)(F)F)ccc1F [AA-043, 1-(2-fluoro-5-(trifluoromethyl)phenyl)-3-(4-(2-oxo-1,2-dihydropyrido[2,3-b]pyrazin-8-yloxy)phenyl)urea]
9 | < 100 nM | O=C(Nc1ccc(Cl)c(C(F)(F)F)c1)Nc1ccc(Oc2ccnc3ncc(=O)[nH]c23)cc1F [AA-048, 1-(4-Chloro-3-(trifluoromethyl)phenyl)-3-(2-fluoro-4-(2-oxo-1,2-dihydropyrido[2,3-b]pyrazin-8-yloxy)phenyl)urea]

Further lines, the compound ahead of its results:

Row | SMILES | IC50
10 | Cc1nc2c(Oc3ccc(NC(=O)Nc4cc(C(C)(C)C)nn4-c4ccccc4)c4ccccc34)ccnc2[nH]c1=O [AA-009, 1-(3-tert-butyl-1-phenyl-1H-pyrazol-5-yl)-3-(4-(2-methyl-3-oxo-3,4-dihydropyrido[2,3-b]pyrazin-8-yloxy)naphthalen-1-yl)urea] | < 100 nM
11 | Cc1nc2c(Oc3ccc(NC(=O)Nc4cc(C(F)(F)F)ccc4F)c(F)c3)ccnc2[nH]c1=O [AA-028, 1-(2-Fluoro-4-(2-methyl-3-oxo-3,4-dihydropyrido[2,3-b]pyrazin-8-yloxy)phenyl)-3-(2-fluoro-5-(trifluoromethyl)phenyl)urea] | < 100 nM
12 | Cc1nc2c(Oc3cccc(NC(=O)c4cccc(OC(F)(F)F)c4)c3)ccnc2[nH]c1=O [AA-004] | < 100 nM
13 | O=C(Nc1cccc(Oc2ccnc3ncc(=O)[nH]c23)c1)c1cccc(OC(F)(F)F)c1 [AA-030, N-(3-(2-oxo-1,2-dihydropyrido[2,3-b]pyrazin-8-yloxy)phenyl)-3-(trifluoromethoxy)benzamide] | < 1000 nM and 100 to 1000 nM
14 | O=C(Nc1cccc(Oc2ccnc3ncc(=O)[nH]c23)c1)Nc1cc(C(F)(F)F)ccc1F [AA-032, 1-(2-fluoro-5-(trifluoromethyl)phenyl)-3-(3-(2-oxo-1,2-dihydropyrido[2,3-b]pyrazin-8-yloxy)phenyl)urea] | < 100 nM
15 | Nc1nc2nccc(Oc3ccc(NC(=O)Nc4cc(C(F)(F)F)ccc4F)c(F)c3)c2[nH]c1=O [AA-022, 1-(4-(3-amino-2-oxo-1,2-dihydropyrido[2,3-b]pyrazin-8-yloxy)-2-fluorophenyl)-3-(2-fluoro-5-(trifluoromethyl)phenyl)urea] | < 1000 nM and 100 to 1000 nM
16 | Cc1nc2nccc(Oc3ccc(NC(=O)Nc4cc(C(C)(C)C)nn4-c4ccccc4)c4ccccc34)c2[nH]c1=O [AA-035, 1-(3-tert-butyl-1-phenyl-1H-pyrazol-5-yl)-3-(4-(3-methyl-2-oxo-1,2-dihydropyrido[2,3-b]pyrazin-8-yloxy)naphthalen-1-yl)urea] | 100 to 1000 nM
17 | CSc1cc(Oc2ccnc3[nH]c(=O)cnc23)ccc1NC(=O)Nc1cc(C(F)(F)F)ccc1F [AA-024, 1-(2-fluoro-5-(trifluoromethyl)phenyl)-3-(2-(methylthio)-4-(3-oxo-3,4-dihydropyrido[3,2-b]pyrazin-8-yloxy)phenyl)urea] | < 100 nM
18 | O=C(Nc1ccc(Oc2ccnc3[nH]c(=O)cnc23)cc1)Nc1ccc(Cl)c(C(F)(F)F)c1 [AA-020, 1-(4-chloro-3-(trifluoromethyl)phenyl)-3-(4-(3-oxo-3,4-dihydropyrido[2,3-b]pyrazin-8-yloxy)phenyl)urea] | < 100 nM
19 | Cc1ccc(-n2nc(C(C)(C)C)cc2NC(=O)Nc2ccc(Oc3ccnc4[nH]c(=O)cnc34)cc2F)cc1 [AA-018, 1-(3-tert-butyl-1-p-tolyl-1H-pyrazol-5-yl)-3-(2-fluoro-4-(3-oxo-3,4-dihydropyrido[3,2-b]pyrazin-8-yloxy)phenyl)urea] | < 100 nM
20 | Cc1nc2nccc(Oc3ccc(NC(=O)Nc4cc(C(F)(F)F)ccc4F)c4ccccc34)c2[nH]c1=O [AA-039, 1-(2-fluoro-5-(trifluoromethyl)phenyl)-3-(4-(3-methyl-2-oxo-1,2-dihydropyrido[2,3-b]pyrazin-8-yloxy)naphthalen-1-yl)urea] | < 1000 nM and 100 to 1000 nM
21 | Cc1ccc(-n2nc(C(C)(C)C)cc2NC(=O)Nc2ccc(Oc3ccnc4[nH]c(=O)c(C)nc34)c3ccccc23)cc1 [AA-011, 1-(3-tert-butyl-1-p-tolyl-1H-pyrazol-5-yl)-3-(4-(2-methyl-3-oxo-3,4-dihydropyrido[2,3-b]pyrazin-8-yloxy)naphthalen-1-yl)urea] | < 100 nM
22 | Cc1ccc(-n2nc(C(C)(C)C)cc2NC(=O)Nc2ccc(Oc3ccnc4ncc(=O)[nH]c34)cc2)cc1 [AA-040, 1-(3-tert-butyl-1-p-tolyl-1H-pyrazol-5-yl)-3-(4-(2-oxo-1,2-dihydropyrido[2,3-b]pyrazin-8-yloxy)phenyl)urea] | 100 to 1000 nM
23 | O=C(Nc1ccc(Sc2ccnc3[nH]c(=O)cnc23)cc1)Nc1cc(C(F)(F)F)ccc1F [AA-027, 1-(2-Fluoro-5-(trifluoromethyl)phenyl)-3-(4-(3-oxo-3,4-dihydropyrido[2,3-b]pyrazin-8-ylthio)phenyl)urea] | < 100 nM
24 | CC(C)(C)c1cc(NC(=O)c2cccc(Oc3ccnc4[nH]c(=O)cnc34)c2)n(-c2ccccc2)n1 [AA-001, N-(3-tert-butyl-1-phenyl-1H-pyrazol-5-yl)-3-(3-oxo-3,4-dihydropyrido[2,3-b]pyrazin-8-yloxy)benzamide] | < 1000 nM and 100 to 1000 nM
25 | O=C(Nc1ccc(Oc2ccnc3ncc(=O)[nH]c23)cc1)Nc1ccc(Cl)c(C(F)(F)F)c1 [AA-042, 1-(4-chloro-3-(trifluoromethyl)phenyl)-3-(4-(2-oxo-1,2-dihydropyrido[2,3-b]pyrazin-8-yloxy)phenyl)urea] | < 1000 nM and 100 to 1000 nM
